Drawing on US20090232838A1, “Ligands of melanocortin receptors” (priority 2005, published 2009), this text covers EC50 and Kb for eleven compounds.

Where two headings read alike, the source gives them in different places.

Holding throughout (type): cell-based
In one assay the target is T1, hMC1-R (Homo sapiens, UniProt Q01726).
T1 construct: expressed in transfected cells; host or cells: CHO-K1
In words: cyclic AMP bioassay, hMC1-R.

A further assay deals with T2, hMC4-R (Homo sapiens, UniProt P32245).
T2 construct: expressed in transfected cells; host or cells: CHO-K1
In words: cyclic AMP bioassay, hMC4-R.

A further assay has as its target T3, hMC3-R (Homo sapiens, UniProt P41968).
T3 construct: expressed in transfected cells; host or cells: CHO-K1
Description: cyclic AMP bioassay, hMC3-R.

Another assay deals with T4, hMC5-R (Homo sapiens, UniProt P33032).
T4 construct: expressed in transfected cells; host or cells: CHO-K1
Description: cyclic AMP bioassay, hMC5-R.

The mark [1] stands for this setting: Table 3A, cAMP in CHO-K1 cells, antagonist potency by Schild analysis, read-out: Kb hMC4-R.
The mark [2] stands for this setting: Table 3A, cAMP in CHO-K1 cells, antagonist potency by Schild analysis, read-out: Kb hMC3-R.

T4 sequence (P33032 whole entry): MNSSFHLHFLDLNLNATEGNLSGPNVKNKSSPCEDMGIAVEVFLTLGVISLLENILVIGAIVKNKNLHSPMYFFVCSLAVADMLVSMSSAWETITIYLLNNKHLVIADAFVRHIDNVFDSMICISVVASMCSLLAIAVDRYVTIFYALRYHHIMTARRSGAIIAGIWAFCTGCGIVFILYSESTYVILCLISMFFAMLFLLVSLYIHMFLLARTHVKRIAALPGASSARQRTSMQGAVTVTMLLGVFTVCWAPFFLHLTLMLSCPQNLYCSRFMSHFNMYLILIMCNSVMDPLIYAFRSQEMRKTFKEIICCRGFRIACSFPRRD
T3 sequence (P41968 whole entry): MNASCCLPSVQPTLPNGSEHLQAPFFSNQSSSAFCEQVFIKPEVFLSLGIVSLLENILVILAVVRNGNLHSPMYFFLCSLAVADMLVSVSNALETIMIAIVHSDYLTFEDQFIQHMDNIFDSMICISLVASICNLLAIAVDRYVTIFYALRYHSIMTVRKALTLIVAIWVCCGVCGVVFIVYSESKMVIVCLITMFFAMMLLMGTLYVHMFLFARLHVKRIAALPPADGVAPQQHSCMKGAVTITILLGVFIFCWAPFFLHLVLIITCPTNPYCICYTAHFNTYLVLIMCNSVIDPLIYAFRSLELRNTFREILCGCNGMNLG
T1 sequence (Q01726 whole entry): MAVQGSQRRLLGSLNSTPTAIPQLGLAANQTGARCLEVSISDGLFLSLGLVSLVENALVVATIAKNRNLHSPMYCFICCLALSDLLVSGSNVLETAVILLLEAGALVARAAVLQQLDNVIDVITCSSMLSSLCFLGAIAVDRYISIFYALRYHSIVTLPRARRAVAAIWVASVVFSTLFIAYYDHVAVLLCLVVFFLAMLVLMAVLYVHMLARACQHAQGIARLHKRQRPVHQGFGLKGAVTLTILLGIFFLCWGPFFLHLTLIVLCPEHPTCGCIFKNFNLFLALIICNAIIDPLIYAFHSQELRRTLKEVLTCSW
T2 sequence (P32245 whole entry): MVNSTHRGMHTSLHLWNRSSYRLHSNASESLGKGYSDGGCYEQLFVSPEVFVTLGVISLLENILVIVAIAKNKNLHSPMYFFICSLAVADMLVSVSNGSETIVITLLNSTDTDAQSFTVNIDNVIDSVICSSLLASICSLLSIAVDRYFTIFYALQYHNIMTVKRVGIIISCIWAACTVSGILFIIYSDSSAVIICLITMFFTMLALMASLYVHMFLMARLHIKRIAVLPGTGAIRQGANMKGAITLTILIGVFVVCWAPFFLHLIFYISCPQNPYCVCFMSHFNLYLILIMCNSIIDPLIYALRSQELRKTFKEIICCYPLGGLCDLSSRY
Description for hMC1-R: (§1) Intracellular cyclic AMP (cAMP) levels were determined by an electrochemiluminescence (ECL) assay (Meso Scale Discovery®, Gaithersburg, Md.; referred to hereinafter as MSD). […] Transgenic CHO-K1 cells stably expressing hMC receptor subtypes 1, 3, 4 or 5 were dispensed at a density of approximately 7,000 cells/well in 384-well Multi-Arrays plates (MSD) containing integrated carbon electrodes and coated with anti-CAMP antibody. Increasing concentrations of the test compounds were added and the cells were incubated for approximately 40 minutes at approximately 37° C. […] At the end of the second incubation period read buffer (Tris-buffered solution containing an ECL co-reactant and Triton X-100 at ph 7.8) was added and the cAMP levels in the cell lysates were immediately determined by ECL detection with a Sector Imager 6000 Reader® (MSD). Data were analyzed using a computer-assisted non-linear regression analysis (XL fit; IDBS) and reported as either an EC50 value or a Kb value.
(§2) The Kb value reflects the potency of an antagonist and is determined by Schild analysis. In brief, concentration-response curves of an agonist are carried out in the presence of increasing concentrations of an antagonist. […] It is calculated by extrapolating the line on a Schild plot to zero on the y-axis.
Description for hMC4-R: as §1, §2
Description for hMC5-R: as §1, §2

`CCCC[C@H](NC(C)=O)C(=O)N[C@H]1CSSC[C@@H](C(=O)NCCC(=O)N[C@@H](Cc2ccc(O)cc2)C(=O)NCC(=O)N[C@@H](CCCNC(=N)N)C(=O)N[C@@H](CCCNC(=N)N)C(=O)N[C@@H](CCCNC(=N)N)C(=O)N[C@@H](CCCNC(=N)N)C(=O)N[C@@H](CCCNC(=N)N)C(=O)N[C@@H](CCC(N)=O)C(=O)N[C@@H](CCCNC(=N)N)C(=O)N[C@@H](CCCNC(=N)N)C(=O)N[C@@H](CCCNC(=N)N)C(N)=O)NC(=O)[C@H](Cc2c[nH]c3ccccc23)NC(=O)[C@H](CCCNC(=N)N)NC(=O)[C@@H](Cc2ccccc2)NC(=O)[C@H](Cc2c[nH]cn2)NC(=O)[C@@H](C)NC1=O`: the EC50 – broadly, the midpoint of the concentration-response curve – on hMC1-R amounted to 0.00786 µM; at hMC5-R it was 4.9 µM. For the same compound, the Kb on hMC4-R is 0.000843 µM; on hMC3-R, 0.0105 µM.

For the compound `CC(=O)N[C@H]1CSSC[C@@H](C(=O)N2CCC[C@H]2C(=O)N2CCC[C@H]2C(=O)N[C@@H](CCCCN)C(=O)N[C@@H](CC(=O)O)C(=O)NCCC(=O)N[C@@H](Cc2ccc(O)cc2)C(=O)NCC(=O)N[C@@H](CCCNC(=N)N)C(=O)N[C@@H](CCCCN)C(=O)N[C@@H](CCCCN)C(=O)N[C@@H](CCCNC(=N)N)C(=O)N[C@@H](CCCNC(=N)N)C(=O)N[C@@H](CCC(N)=O)C(=O)N[C@@H](CCCNC(=N)N)C(=O)N[C@@H](CCCNC(=N)N)C(=O)N[C@@H](CCCNC(=N)N)C(N)=O)NC(=O)[C@H](C)NC(=O)[C@H](Cc2cccc3ccccc23)NC(=O)[C@H](CCCNC(=N)N)NC(=O)[C@@H](Cc2ccc3ccccc3c2)NC(=O)[C@H](Cc2c[nH]cn2)NC(=O)[C@H](CCC(=O)O)NC1=O`, the EC50 on hMC1-R was found to be 0.0433 µM; at hMC5-R it was 1.29 µM. Moreover, the Kb on hMC4-R worked out at 0.00587 µM; at hMC3-R it was 0.215 µM.

Turning to `CC(=O)N[C@H]1CSSC[C@@H](C(=O)N2CCC[C@H]2C(=O)N2CCC[C@H]2C(=O)N[C@@H](CCCCN)C(=O)N[C@@H](CC(=O)O)C(=O)NCCC(=O)N[C@@H](CCCNC(=N)N)C(=O)N[C@@H](CCCNC(=N)N)C(=O)N[C@@H](CCCNC(=N)N)C(=O)N[C@@H](CCCNC(=N)N)C(=O)N[C@@H](CCCNC(=N)N)C(=O)N[C@@H](CCCNC(=N)N)C(=O)N[C@@H](CCC(N)=O)C(=O)N[C@@H](CCCNC(=N)N)C(=O)N[C@@H](CCCNC(=N)N)C(=O)N[C@@H](CCCNC(=N)N)C(N)=O)NC(=O)[C@H](C)NC(=O)[C@H](Cc2cccc3ccccc23)NC(=O)[C@H](CCCNC(=N)N)NC(=O)[C@@H](Cc2ccc3ccccc3c2)NC(=O)[C@H](Cc2c[nH]cn2)NC(=O)[C@H](CCC(=O)O)NC1=O`, the EC50 at hMC1-R is 0.093 µM; on hMC5-R it was more than 10 µM. The Kb was determined as 0.0159 µM at hMC4-R and 0.071 µM at hMC3-R.

In the case of `CC(=O)N[C@H]1CSSC[C@@H](C(=O)N2CCC[C@H]2C(=O)N2CCC[C@H]2C(=O)N[C@@H](CCCCN)C(=O)N[C@@H](CC(=O)O)C(=O)NCCC(=O)N[C@@H](CCCNC(=N)N)C(=O)N[C@@H](CCCNC(=N)N)C(=O)N[C@@H](CCCNC(=N)N)C(=O)N[C@@H](CCCNC(=N)N)C(=O)N[C@@H](CCCNC(=N)N)C(=O)N[C@@H](CCC(N)=O)C(=O)N[C@@H](CCCNC(=N)N)C(=O)N[C@@H](CCCNC(=N)N)C(=O)N[C@@H](CCCNC(=N)N)C(N)=O)NC(=O)[C@H](C)NC(=O)[C@H](Cc2cccc3ccccc23)NC(=O)[C@H](CCCNC(=N)N)NC(=O)[C@@H](Cc2ccc3ccccc3c2)NC(=O)[C@H](Cc2c[nH]cn2)NC(=O)[C@H](CCC(=O)O)NC1=O`, the EC50 on hMC1-R was 0.036 µM; on hMC5-R, 0.0561 µM. Further, the Kb stood at 0.0114 µM on hMC4-R and 0.0465 µM on hMC3-R.

For the compound `CC(=O)N[C@H]1CSSC[C@@H](C(=O)N2CCC[C@H]2C(=O)N2CCC[C@H]2C(=O)N[C@@H](CCCNC(=N)N)C(=O)N[C@@H](CC(=O)O)C(=O)NCCC(=O)N[C@@H](CCCNC(=N)N)C(=O)N[C@@H](CCCNC(=N)N)C(=O)N[C@@H](CCCNC(=N)N)C(=O)N[C@@H](CCCNC(=N)N)C(=O)N[C@@H](CCCNC(=N)N)C(=O)N[C@@H](CCC(N)=O)C(=O)N[C@@H](CCCNC(=N)N)C(=O)N[C@@H](CCCNC(=N)N)C(=O)N[C@@H](CCCNC(=N)N)C(N)=O)NC(=O)[C@H](C)NC(=O)[C@H](Cc2ccc3ccccc3c2)NC(=O)[C@H](CCCNC(=N)N)NC(=O)[C@@H](Cc2ccc3ccccc3c2)NC(=O)[C@H](Cc2c[nH]cn2)NC(=O)[C@H](CCC(=O)O)NC1=O`, the EC50 on hMC1-R was found to be 0.0397 µM; on hMC5-R, 0.501 µM. The Kb on hMC4-R came out at 0.00666 µM; at hMC3-R it was 0.0309 µM.

Consider `CC(=O)N[C@H]1CSSC[C@@H](C(=O)N2CCC[C@H]2C(=O)N2CCC[C@H]2C(=O)N[C@@H](CCCCN)C(=O)N[C@@H](CC(=O)O)C(=O)NCCC(=O)N[C@@H](Cc2ccc(O)cc2)C(=O)NCC(=O)N[C@@H](CCCNC(=N)N)C(=O)N[C@@H](CCCCN)C(=O)N[C@@H](CCCCN)C(=O)N[C@@H](CCCNC(=N)N)C(=O)N[C@@H](CCCNC(=N)N)C(=O)N[C@@H](CCC(N)=O)C(=O)N[C@@H](CCCNC(=N)N)C(=O)N[C@@H](CCCNC(=N)N)C(=O)N[C@@H](CCCNC(=N)N)C(N)=O)NC(=O)[C@H](C)NC(=O)[C@H](Cc2ccc3ccccc3c2)NC(=O)[C@H](CCCNC(=N)N)NC(=O)[C@@H](Cc2ccc3ccccc3c2)NC(=O)[C@H](Cc2c[nH]cn2)NC(=O)[C@H](CCC(=O)O)NC1=O`, for which the figures for the EC50 at hMC1-R and on hMC5-R were 0.0297 µM and 0.0829 µM, respectively. For the same compound, the Kb was 0.00737 µM on hMC4-R and 0.0256 µM at hMC3-R.

In the case of `CC(=O)N[C@H]1CSSC[C@@H](C(=O)N2CCC[C@H]2C(=O)N2CCC[C@H]2C(=O)N[C@@H](CCCCN)C(=O)N[C@@H](CC(=O)O)C(=O)NCCC(=O)NCC(=O)N[C@@H](CCCNC(=N)N)C(=O)N[C@@H](CCCNC(=N)N)C(=O)N[C@@H](CCCCN)C(=O)N[C@@H](CCCNC(=N)N)C(=O)N[C@@H](CCCNC(=N)N)C(=O)N[C@@H](CCC(N)=O)C(=O)N[C@@H](CCCNC(=N)N)C(=O)N[C@@H](CCCNC(=N)N)C(=O)N[C@@H](CCCNC(=N)N)C(N)=O)NC(=O)[C@H](C)NC(=O)[C@H](Cc2ccc3ccccc3c2)NC(=O)[C@H](CCCNC(=N)N)NC(=O)[C@@H](Cc2ccc3ccccc3c2)NC(=O)[C@H](Cc2c[nH]cn2)NC(=O)[C@H](CCC(=O)O)NC1=O`, the values for the EC50 on hMC1-R and on hMC5-R were 0.0454 µM and 0.162 µM, respectively. The Kb at hMC4-R and at hMC3-R was 0.0127 µM in each case.

On to `CC(=O)N[C@H]1CSSC[C@@H](C(=O)N2CCC[C@H]2C(=O)N2CCC[C@H]2C(=O)N[C@@H](CCCCN)C(=O)N[C@@H](CC(=O)O)C(=O)NCCC(=O)N[C@@H](Cc2ccc(O)cc2)C(=O)NCC(=O)N[C@@H](CCCNC(=N)N)C(=O)N[C@@H](CCCCN)C(=O)N[C@@H](CCCCN)C(=O)N[C@@H](CCCNC(=N)N)C(=O)N[C@@H](CCCNC(=N)N)C(=O)N[C@@H](CCCNC(=N)N)C(=O)N[C@@H](CCCNC(=N)N)C(=O)N[C@@H](CCCNC(=N)N)C(=O)N[C@@H](CCC(N)=O)C(N)=O)NC(=O)[C@H](C)NC(=O)[C@H](Cc2c[nH]c3ccccc23)NC(=O)[C@H](CCCNC(=N)N)NC(=O)[C@@H](Cc2ccc3ccccc3c2)NC(=O)[C@H](Cc2c[nH]cn2)NC(=O)[C@H](CCC(=O)O)NC1=O`, for which the EC50 was found to be 0.0075 µM on hMC1-R and 0.0517 µM on hMC5-R. Further, the Kb was found to be 0.00761 µM at hMC4-R and 0.0122 µM on hMC3-R.

For `CC(=O)N[C@H]1CSSC[C@@H](C(=O)N2CCC[C@H]2C(=O)N2CCC[C@H]2C(=O)N[C@@H](CCCCN)C(=O)N[C@@H](CC(=O)O)C(=O)NCCC(=O)N[C@@H](Cc2ccc(O)cc2)C(=O)NCC(=O)N[C@@H](CCCNC(=N)N)C(=O)N[C@@H](CCCCN)C(=O)N[C@@H](CCCCN)C(=O)N[C@@H](CCCNC(=N)N)C(=O)N[C@@H](CCC(N)=O)C(=O)N[C@@H](CCCNC(=N)N)C(=O)N[C@@H](CCCNC(=N)N)C(=O)N[C@@H](CCCNC(=N)N)C(=O)N[C@@H](CCCNC(=N)N)C(N)=O)NC(=O)[C@H](C)NC(=O)[C@H](Cc2c[nH]c3ccccc23)NC(=O)[C@H](CCCNC(=N)N)NC(=O)[C@@H](Cc2ccc3ccccc3c2)NC(=O)[C@H](Cc2c[nH]cn2)NC(=O)[C@H](CCC(=O)O)NC1=O`, the EC50 on hMC1-R was 0.0152 µM; on hMC5-R, 0.0368 µM. The Kb at hMC4-R was determined as 0.00452 µM; at hMC3-R, 0.0146 µM.

Turning to `CC(=O)N[C@H]1CSSC[C@@H](C(=O)N2CCC[C@H]2C(=O)N2CCC[C@H]2C(=O)N[C@@H](CCCCN)C(=O)N[C@@H](CC(=O)O)C(=O)NCCOCCOCC(=O)N[C@@H](Cc2ccc(O)cc2)C(=O)NCC(=O)N[C@@H](CCCNC(=N)N)C(=O)N[C@@H](CCCCN)C(=O)N[C@@H](CCCCN)C(=O)N[C@@H](CCCNC(=N)N)C(=O)N[C@@H](CCCNC(=N)N)C(=O)N[C@@H](CCC(N)=O)C(=O)N[C@@H](CCCNC(=N)N)C(=O)N[C@@H](CCCNC(=N)N)C(=O)N[C@@H](CCCNC(=N)N)C(N)=O)NC(=O)CNC(=O)[C@H](Cc2c[nH]c3ccccc23)NC(=O)[C@H](CCCNC(=N)N)NC(=O)[C@@H](Cc2ccc3ccccc3c2)NC(=O)[C@H](Cc2c[nH]cn2)NC(=O)[C@H](CCC(=O)O)NC1=O`, the figures for the Kb on hMC4-R (setting [1]) and at hMC3-R (setting [2]) were 0.00149 µM and 0.0177 µM, respectively.

For the compound `CCCC[C@H](NC(=O)[C@H](CCCNC(=N)N)NC(=O)[C@H](CCCNC(=N)N)NC(=O)[C@H](CCCNC(=N)N)NC(=O)[C@H](CCC(N)=O)NC(=O)[C@H](CCCNC(=N)N)NC(=O)[C@H](CCCNC(=N)N)NC(=O)[C@H](CCCCN)NC(=O)[C@H](CCCCN)NC(=O)[C@H](CCCNC(=N)N)NC(=O)CNC(=O)[C@@H](N)Cc1ccc(O)cc1)C(=O)N[C@H]1CC(=O)NCCCC[C@@H](C(N)=O)NC(=O)[C@H](Cc2c[nH]c3ccccc23)NC(=O)[C@H](CCCNC(=N)N)NC(=O)[C@@H](Cc2ccc3ccccc3c2)NC(=O)[C@H](Cc2c[nH]cn2)NC1=O`, the Kb at hMC4-R (setting [1]) turned out to be 0.105 µM; on hMC3-R (setting [2]), 4.5 µM.
